“And” between values parts separate entries of the source, which are not always exact repeats. Identical values can stand only once.
System: WM3248 melanoma cells, 486 antibodies
Experiment: Reverse phase protein arrays (RPPA)
Type: cell-based, Human
Text: Pellets were snap frozen in liquid nitrogen and shipped to MD Anderson Cancer Center core RPPA facility for RPPA analysis (Table S5). Three biological replicates for each sample were generated.
Nomenclatures on the RPPA heatmaps: name_of_antibody.species_of_antibody.status_of_antibody. V - antibody validated; C - validation of antibody in progress; Q - antibody nonspecific; E – under evaluation; antibodies raised in M - mouse, G - goat, R - rabbit, or T - rat.

[1] = Norm_20, replicates 1-3 and Average, relative to Norm_0

With `CN(C)c1cccc(Nc2cc(-c3ccccc3)nc(C3CCNCC3)n2)c1` [ARN22089, N1,N1-dimethyl-N3-(6-phenyl-2-(piperidin-4-yl)pyrimidin-4-yl)benzene-1,3-diamine] the “Bax.R.V RPPA signal, normalized” value [1] was 1.116 and 1.001 and 1.099, the “Bcl2.R.C RPPA signal, normalized” value [1] was 1.192 and 1.263 and 1.147 and 1.201 and the “Bcl.xL.R.V RPPA signal, normalized” value [1] was 1.010 and 1.055 and 1.349 and 1.138. The “Beclin.R.C RPPA signal, normalized” value [1] was 0.940 and 1.021 and 1.001, the “BiP.GRP78.M.C RPPA signal, normalized” value [1] was 0.957 and 0.997 and 0.968 and the “Bid.R.C RPPA signal, normalized” value [1] was 1.024 and 0.874 and 0.875 and 0.925. For the same compound, the “Bim.R.V RPPA signal, normalized” value [1] was 1.050 and 0.910 and 0.906 and 0.955, the “X4E.BP1.R.V RPPA signal, normalized” value [1] was 0.857 and 0.934 and 2.342 and 1.377 and the “X4E.BP1_pS65.R.V RPPA signal, normalized” value [1] was 0.791 and 0.833 and 1.063 and 0.895. The “X4E.BP1_pT37_T46.R.V RPPA signal, normalized” value [1] was 0.867 and 0.753 and 1.126 and 0.915, the “X14.3.3.zeta.R.V RPPA signal, normalized” value [1] was 0.941 and 0.920 and 0.970 and 0.944 and the “X14.3.3βR.V RPPA signal, normalized” value [1] was 1.101 and 1.160 and 0.888 and 1.050. For the same compound, the “X14.3.3εM.C RPPA signal, normalized” value [1] was 0.855 and 0.892 and 1.081 and 0.943, the “X53BP1.R.V RPPA signal, normalized” value [1] was 1.138 and 0.986 and 1.047 and 1.057 and the “b.Actin.R.C RPPA signal, normalized” value [1] was 1.058 and 1.299 and 1.110 and 1.155. The “b.Catenin.R.V RPPA signal, normalized” value [1] was 0.975 and 0.858 and 1.031 and 0.954, the “b.Catenin_pT41_S45.R.V RPPA signal, normalized” value [1] was 1.047 and 1.076 and the “c.Abl.R.V RPPA signal, normalized” value [1] was 1.061 and 1.026 and 1.186. The “c.Abl_pY412.R.C RPPA signal, normalized” value [1] was 1.034 and 0.935 and 1.009 and 0.993, the “c.IAP2.R.C RPPA signal, normalized” value [1] was 1.049 and 1.145 and 1.104 and 1.100 and the C.Raf.R.C normalized signal (Norm_20 Average) was 0.952. For the same compound, the CA9.R.C normalized signal (Norm_20 Average) was 0.890, the CD2.M.C normalized signal (Norm_20 Average) was 0.871 and the CD4.R.V normalized signal (Norm_20 Average) was 1.005. It also gave a CD5.M.C normalized signal (Norm_20 Average) of 0.944, a CD20.R.C normalized signal (Norm_20 Average) of 1.356 and a CD26.R.V normalized signal (Norm_20 Average) of 1.108. For the same compound, the CD29.M.V normalized signal (Norm_20 Average) was 0.892, the CD31.M.V normalized signal (Norm_20 Average) was 0.916 and the CD44.R.C normalized signal (Norm_20 Average) was 1.001. The CD45.M.V normalized signal (Norm_20 Average) was 0.902, the CD49b.M.V normalized signal (Norm_20 Average) was 1.012 and the CD68.M.C normalized signal (Norm_20 Average) was 0.968. The CD74.M.V normalized signal (Norm_20 Average) was 0.926, the CD134.R.V normalized signal (Norm_20 Average) was 0.946 and the CD171.M.V normalized signal (Norm_20 Average) was 0.712. For the same compound, the CDK1_pT14.R.C normalized signal (Norm_20 Average) was 1.008, the CDK9.R.V normalized signal (Norm_20 Average) was 0.932 and the CDKN2A.R.C normalized signal (Norm_20 Average) was 0.921. The CDT1.R.V normalized signal (Norm_20 Average) was 0.857, the CENP.A.R.V normalized signal (Norm_20 Average) was 1.525 and the CRABP1.R.C normalized signal (Norm_20 Average) was 0.968. It also gave a CRABP2.R.V normalized signal (Norm_20 Average) of 0.841, a CREB_pS133.R.C normalized signal (Norm_20 Average) of 1.190 and a CSK.R.C normalized signal (Norm_20 Average) of 0.923. It also gave a Calnexin.R.V normalized signal (Norm_20 Average) of 0.926, a Caspase.3.cleaved.R.C normalized signal (Norm_20 Average) of 1.013 and a Caspase.7.cleaved..R.C normalized signal (Norm_20 Average) of 1.013. The Caspase.8.M.Q normalized signal (Norm_20 Average) was 0.961, the Caspase.8.cleaved.R.C normalized signal (Norm_20 Average) was 0.957 and the Caveolin.1.R.V normalized signal (Norm_20 Average) was 0.866. It also gave a Cdc6.R.V normalized signal (Norm_20 Average) of 0.851, a Cdc42.R.C normalized signal (Norm_20 Average) of 0.996 and a Chk1.M.C normalized signal (Norm_20 Average) of 0.786. For the same compound, the Chk1_pS345.R.C normalized signal (Norm_20 Average) was 1.170, the Chk2.M.V normalized signal (Norm_20 Average) was 0.875 and the Chk2_pT68.R.C normalized signal (Norm_20 Average) was 1.128. For the same compound, the Claudin.7.R.V normalized signal (Norm_20 Average) was 1.226, the Collagen.VI.R.V normalized signal (Norm_20 Average) was 1.013 and the Complex.II.Subunit.M.V normalized signal (Norm_20 Average) was 1.002. For the same compound, the Coup.TFII.R.C normalized signal (Norm_20 Average) was 1.005, the Cox2.R.C normalized signal (Norm_20 Average) was 1.349 and the Cox.IV.R.V normalized signal (Norm_20 Average) was 0.992. The Creb.R.C normalized signal (Norm_20 Average) was 1.053, the CtIP.R.V normalized signal (Norm_20 Average) was 0.962 and the Cyclin.B1.R.V normalized signal (Norm_20 Average) was 0.968. It also gave a Cyclin.D1.R.C normalized signal (Norm_20 Average) of 0.986, a Cyclin.D3.M.V normalized signal (Norm_20 Average) of 0.749 and a Cyclin.E1.R.V normalized signal (Norm_20 Average) of 0.902. The Cyclophilin.F.M.V normalized signal (Norm_20 Average) was 0.934, the D.a.Tubulin.R.V normalized signal (Norm_20 Average) was 0.990 and the DAPK1_pS308.M.C normalized signal (Norm_20 Average) was 2.076. It also gave a DAPK2.R.C normalized signal (Norm_20 Average) of 1.013, a DDB.1.R.V normalized signal (Norm_20 Average) of 0.922 and a DDR1.R.V normalized signal (Norm_20 Average) of 0.996. It also gave a DDR1_pY513.R.C normalized signal (Norm_20 Average) of 1.082, a DJ1.R.V normalized signal (Norm_20 Average) of 0.929 and a DM.Histone.H3.R.V normalized signal (Norm_20 Average) of 1.963. It also gave a DM.K9.Histone.H3.M.V normalized signal (Norm_20 Average) of 1.372, a DNA.Ligase.IV.R.C normalized signal (Norm_20 Average) of 0.924 and a DNA_POLG.R.V normalized signal (Norm_20 Average) of 1.084.
